Data as given in paper PMC9304066, “H2S biogenesis by cystathionine beta-synthase: mechanism of inhibition by aminooxyacetic acid and unexpected role of serine” (Cellular and Molecular Life Sciences: CMLS, 2022).
Several values for one entry are separate records, joined by “and”; a condition that tells them apart may be missing. Equal values may be shown once.

Key:
tScCBS [1] = target: T1, tScCBS (Saccharomyces cerevisiae, UniProt P32582); test: CBS H2S production assay (AzMC fluorometric), tScCBS; assay type: biochemical; conditions: tScCBS; AzMC assay
T1 construct: 6xHis (C); made in house
T1 sequence (P32582 1-345): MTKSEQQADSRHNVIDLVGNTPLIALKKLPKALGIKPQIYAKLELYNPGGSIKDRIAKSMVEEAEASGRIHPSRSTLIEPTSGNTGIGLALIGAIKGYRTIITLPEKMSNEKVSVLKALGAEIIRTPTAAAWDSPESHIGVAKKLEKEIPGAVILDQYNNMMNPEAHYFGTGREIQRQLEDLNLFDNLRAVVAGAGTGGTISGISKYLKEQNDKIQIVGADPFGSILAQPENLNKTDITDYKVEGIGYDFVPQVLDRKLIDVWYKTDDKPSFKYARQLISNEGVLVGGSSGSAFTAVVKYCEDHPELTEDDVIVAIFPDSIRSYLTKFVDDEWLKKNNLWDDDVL
Description: (§1) CBS H2S production assay. H2S-producing activity of CBS, utilizing Cys and Hcy, was determined using a fluorometric assay employing the H2S-selective fluorescent probe 7-azido-4-methylcoumarin (AzMC) as described previously. The reaction mixture in a total volume of 200 µL contained 50 mM Tris–HCl pH 8.6, 5 μM PLP, 2 mM Hcy, 10 μM AzMC and 500 ng tScCBS or HsCBS. The plate was incubated for 10 min at 37°C and the enzymatic activity was triggered by adding 0–50 mM Cys. The fluorescence of the mixtures at 450 nm (excited at 365 nm) was followed for 2 h at 37°C. All measurements were performed in triplicates using Tecan Infinite 200 PRO microplate reader. Kinetic data were analyzed using GraphPad Prism software.

tScCBS [2] = target: T1, tScCBS; test: CBL-LDH coupled-coupled CBS assay, tScCBS; assay type: biochemical; conditions: tScCBS; CBL-LDH coupled-coupled assay
Description: (§2) CBS coupled-coupled assay. CBS canonical activity utilizing Ser and Hcy was determined using cystathionine beta-lyase (CBL) and lactate-dehydrogenase (LDH) coupled-coupled assay as described previously with a few modifications. Native L-LDH from rabbit muscle was purchased from Sigma (catalog no. L2500) and recombinant CBL was purchased from Creative Enzymes (catalog no. NATE-1146). In a final volume of 150 µL, the reaction mixture contained 50 mM Tris–HCl pH 8.9, 20 µM PLP, 500 µM NADH, 1.3 µM LDH, 0.1 µM CBL, 0–20 mM Ser (or 0–50 mM Cys) and 500 ng of tScCBS or HsCBS. Assays with HsCBS were carried out in the absence or presence of 500 µM CBS allosteric activator S-adenosylmethionine (SAM). The reaction was triggered by the addition of 2 mM Hcy and the oxidation of NADH to NAD^+ was followed by monitoring the decrease in absorbance at 340 nm over time (ε340 = 6220 M^−1.cm^−1). […] All measurements were performed in triplicates using Tecan Infinite 200 PRO microplate reader. Kinetic data were analyzed using GraphPad Prism software.

HsCBS [3] = target: T2, HsCBS (Homo sapiens, UniProt P35520, DEL516-525); test: CBL-LDH coupled-coupled CBS assay, HsCBS; assay type: biochemical; conditions: CBL-LDH coupled-coupled assay
T2 construct: purchased GenScript
T2 sequence (P35520 with tags, fused parts or gaps DEL516-525): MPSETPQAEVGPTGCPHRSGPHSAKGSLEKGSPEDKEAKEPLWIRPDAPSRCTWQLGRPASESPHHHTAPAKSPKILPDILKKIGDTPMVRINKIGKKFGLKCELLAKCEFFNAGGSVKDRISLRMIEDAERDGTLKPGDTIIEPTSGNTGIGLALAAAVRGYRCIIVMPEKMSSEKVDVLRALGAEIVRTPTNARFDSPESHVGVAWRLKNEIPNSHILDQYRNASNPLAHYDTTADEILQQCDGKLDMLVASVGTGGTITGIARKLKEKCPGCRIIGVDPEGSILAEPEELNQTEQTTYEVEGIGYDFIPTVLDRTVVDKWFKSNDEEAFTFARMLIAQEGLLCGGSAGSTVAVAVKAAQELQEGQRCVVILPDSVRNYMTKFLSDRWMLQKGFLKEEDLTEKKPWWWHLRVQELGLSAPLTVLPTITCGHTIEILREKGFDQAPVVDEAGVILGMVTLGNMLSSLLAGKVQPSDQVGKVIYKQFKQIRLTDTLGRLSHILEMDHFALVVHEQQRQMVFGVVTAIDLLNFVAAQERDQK
Description: as §2

HsCBS [4] = target: T2, HsCBS; test: CBS H2S production assay (AzMC fluorometric), HsCBS; assay type: biochemical; conditions: AzMC assay
Description: as §1

tScCBS [5] = target: T1, tScCBS; test: Kinetics of AOAA binding to tScCBS and displacement by substrate, followed by absorption spectra; conditions: in the presence of Cys, data not shown
Description: (§3) UV − Vis and fluorescence spectroscopy. Absorption spectra were collected on a Tecan Infinite M200 Pro spectrophotometer in a buffer containing 50 mM Tris–HCl pH 8.5, 20 mM NaCl and 0.5 mM tris(2-carboxyethyl)phosphine (TCEP). All the spectra were carried out with a protein concentration of 1 mg/mL with a 1 cm path-length quartz cuvette in a total volume of 150 µL. tScCBS was titrated directly in a cuvette by successive additions of different concentrations of AOAA, Ser and Cys, respectively, and spectra were recorded between 240 and 600 nm after an incubation time of 3 min at RT. Fluorescence emission spectra were collected under the same conditions upon PLP excitation at 410 nm. Blank spectra were subtracted from sample spectra.
Fig. 2 Spectroscopic rescue of AOAA-inhibited tScCBS by Ser. A Changes in the absorption spectra of tScCBS upon addition of 20 µM AOAA (cyan lines) followed for 1 h. Subsequently, 1 mM Ser (gray lines) was added and spectral changes were followed for additional 1 h. B Representative kinetic fitting of AOAA binding to tScCBS followed at 412 nm. C Representative kinetic fitting of AOAA displacement from tScCBS by Ser by following changes at 370 nm and 460 nm. The kinetic parameters of the observed processes are shown as insets in panels B and C. Far-UV (D) and near-UV (E) CD spectra of tScCBS (black), tScCBS complexed with 20 µM AOAA (cyan) or 1 mM Ser (magenta) and tScCBS complexed with 20 µM AOAA followed by 1 h incubation with 1 mM Ser (green).

tScCBS [6] = target: T1, tScCBS; test: UV-Vis absorption titration of tScCBS (dissociation constants); assay type: binding; conditions: tScCBS 1 mg/mL, pH 8.5; decrease in absorbance at 412 nm (AOAA), increase at 460 nm (Ser) or 440 nm (Cys); 3 min incubation; read-out: Dissociation constant Kd (UV-Vis absorption)
Description: (§4) CBS enzymes. Recombinant truncated Saccharomyces cerevisiae CBS lacking the C-terminal regulatory domain (residues 346–507) and carrying the C-terminal 6xHis tag (tScCBS) was prepared as described previously. Engineered recombinant Homo sapiens CBS lacking a loop protruding from the central β-strand of the CBS2 domain corresponding to the residues 516–525 (HsCBS; described in detail in [21]) was purchased from GenScript.
as §3

tScCBS [7] = target: T1, tScCBS; test: Fluorescence emission titration of tScCBS (PLP excitation at 410 nm); assay type: binding; conditions: tScCBS 1 mg/mL, pH 8.5; decrease in emission at 520 nm, excitation 410 nm; read-out: Dissociation constant Kd (fluorescence)
Description: as §4, §3

Vmax (tScCBS [1]): 317.0 ± 24.1 µmol/h/mg
kcat (tScCBS [1]): 3.4 ± 0.3 s⁻¹
Vmax (tScCBS [2]): 161.5 ± 4.5 µmol/h/mg
kcat (tScCBS [2]): 1.7 ± 0.1 s⁻¹
Vmax (HsCBS [3]; HsCBS + SAM): 97.2 ± 7.1 µmol/h/mg
kcat (HsCBS [3]; HsCBS + SAM): 1.66 ± 0.03 s⁻¹
Vmax (HsCBS [3]; HsCBS – SAM): 20.1 ± 1.7 µmol/h/mg
kcat (HsCBS [3]; HsCBS – SAM): 0.34 ± 0.02 s⁻¹
Vmax (HsCBS [4]; HsCBS + SAM): 113.3 ± 4.0 µmol/h/mg
kcat (HsCBS [4]; HsCBS + SAM): 1.93 ± 0.06 s⁻¹
Vmax (HsCBS [4]; HsCBS – SAM): 30.8 ± 1.9 µmol/h/mg
kcat (HsCBS [4]; HsCBS – SAM): 0.52 ± 0.04 s⁻¹
Displacement of AOAA from the tScCBS active site (tScCBS [5]): did not occur
Kd (tScCBS [6]): ~58 µM and 57.3 µM
Kd (tScCBS [7]): 48.9 ± 14.6 µM
Structure (SMILES): N[C@@H](CS)C(=O)O [Cys, cysteine]
